{"source": "patent US6914045B2", "about": "“Glycopeptide antibiotics” (Wyeth Holdings Corporation, priority 2001, dated 2005)", "assay_in_all_cases": "in vitro antibacterial evaluation, MIC by broth dilution", "format_in_all_cases": "cell-based", "conditions_in_all_cases": "broth dilution, 18 hours at 35° C.", "key": {"Enterococcus sp.": {"test_system": "Enterococcus sp.", "summary_of_the_method": "(§1)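 Step 1: dilute antibiotic across 64-0.06 μg/mL in Muller-Hinton II […]. Step 2: inoculate at 5×10^5 CFU/mL.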"}, "Streptococcus sp.": {"test_system": "Streptococcus sp.", "summary_of_the_method": "as §1"}, "Staphylococcus sp.": {"test_system": "Staphylococcus sp.", "summary_of_the_method": "as §1"}, "Escherichia coli": {"test_system": "Escherichia coli", "summary_of_the_method": "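MIC is the lowest antibiotic concentration (tested 64-0.06 μg/mL) preventing growth of a 5×10^5 CFU/mL inoculum. Determined by broth dilution in Mueller-Hinton II medium following NCCLS standard M7-A2.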"}}}
{"molecule": "CC(c1ccccc1)C1NC(=O)CNC(=O)C(CO)NC(=O)C(C(O)C2CNC(=N)N2C2OC(CO)C(O)C(O)C2O)NC(=O)C(C(O)C2CNC(=N)N2)NC(=O)C(Cc2ccc3oc(-c4ccoc4)nc3c2)NC1=O", "note": "(stereo not drawn) [Example 38, Cyclo[3-[2-(3-furyl)-1,3-benzoxazol-5-yl]alanyl-3-(2-iminoimidazolidin-4-yl)seryl-3-(3-hexopyranosyl-2-iminoimidazolidin-4-yl)serylserylglycyl-β-methylphenylalanyl]]", "values": [{"measurement": "MIC Enterococcus faecalis (ATCC 29212)", "setting": "Enterococcus sp.; strain ATCC 29212", "value": 128, "unit": "µg/mL"}, {"measurement": "MIC Enterococcus faecalis (GC 2242)", "setting": "Enterococcus sp.; strain GC 2242", "value": 128, "unit": "µg/mL"}, {"measurement": "MIC Enterococcus faecium (GC 2243)", "setting": "Enterococcus sp.; strain GC 2243", "value": 128, "unit": "µg/mL"}, {"measurement": "MIC Enterococcus faecalis (GC 2691)", "setting": "Enterococcus sp.; strain GC 2691", "value": 128, "unit": "µg/mL"}, {"measurement": "MIC Enterococcus faecalis (GC 3059)", "setting": "Enterococcus sp.; strain GC 3059", "value": ">128", "unit": "µg/mL"}, {"measurement": "MIC Enterococcus faecalis (GC 4552)", "setting": "Enterococcus sp.; strain GC 4552", "value": 128, "unit": "µg/mL"}, {"measurement": "MIC Enterococcus faecalis (GC 4553)", "setting": "Enterococcus sp.; strain GC 4553", "value": 64, "unit": "µg/mL"}, {"measurement": "MIC Enterococcus faecalis (GC 4554)", "setting": "Enterococcus sp.; strain GC 4554", "value": 128, "unit": "µg/mL"}, {"measurement": "MIC Enterococcus faecium (GC 4556)", "setting": "Enterococcus sp.; strain GC 4556", "value": 128, "unit": "µg/mL"}, {"measurement": "MIC Enterococcus faecium (GC 4557)", "setting": "Enterococcus sp.; strain GC 4557", "value": 32, "unit": "µg/mL"}, {"measurement": "MIC Enterococcus avium (GC 4558)", "setting": "Enterococcus sp.; strain GC 4558", "value": 64, "unit": "µg/mL"}, {"measurement": "MIC Enterococcus faecalis (GC 6189)", "setting": "Enterococcus sp.; strain GC 6189", "value": 128, "unit": "µg/mL"}, {"measurement": "MIC Streptococcus pneumoniae (ATCC 6301)", "setting": "Streptococcus sp.; strain ATCC 6301", "value": 32, "unit": "µg/mL"}, {"measurement": "MIC Streptococcus pneumoniae (GC 1894)", "setting": "Streptococcus sp.; strain GC 1894", "value": 32, "unit": "µg/mL"}, {"measurement": "MIC Streptococcus pyogenes (GC 4563)", "setting": "Streptococcus sp.; strain GC 4563", "value": 32, "unit": "µg/mL"}, {"measurement": "MIC Streptococcus agalactiae (GC 4564)", "setting": "Streptococcus sp.; strain GC 4564", "value": 32, "unit": "µg/mL"}, {"measurement": "MIC Streptococcus pneumoniae (GC 4565)", "setting": "Streptococcus sp.; strain GC 4565", "value": 64, "unit": "µg/mL"}, {"measurement": "MIC Staphylococcus aureus (ATCC 29213)", "setting": "Staphylococcus sp.; strain ATCC 29213", "value": 64, "unit": "µg/mL"}, {"measurement": "MIC Staphylococcus aureus (GC 1131)", "setting": "Staphylococcus sp.; strain GC 1131", "value": 32, "unit": "µg/mL"}, {"measurement": "MIC Staphylococcus aureus (GC 3051)", "setting": "Staphylococcus sp.; strain GC 3051", "value": 64, "unit": "µg/mL"}, {"measurement": "MIC Staphylococcus aureus (GC 3053)", "setting": "Staphylococcus sp.; strain GC 3053", "value": 64, "unit": "µg/mL"}, {"measurement": "MIC Staphylococcus aureus (GC 4541)", "setting": "Staphylococcus sp.; strain GC 4541", "value": 64, "unit": "µg/mL"}, {"measurement": "MIC Staphylococcus aureus (GC 4542)", "setting": "Staphylococcus sp.; strain GC 4542", "value": 64, "unit": "µg/mL"}, {"measurement": "MIC Staphylococcus aureus-SMITH (GC 4543)", "setting": "Staphylococcus sp.; strain GC 4543", "value": 64, "unit": "µg/mL"}, {"measurement": "MIC Staphylococcus aureus (GC 4544)", "setting": "Staphylococcus sp.; strain GC 4544", "value": 64, "unit": "µg/mL"}, {"measurement": "MIC Staphylococcus aureus (GC 4545)", "setting": "Staphylococcus sp.; strain GC 4545", "value": 32, "unit": "µg/mL"}, {"measurement": "MIC Staphylococcus haemolyticus (GC 4546)", "setting": "Staphylococcus sp.; strain GC 4546", "value": 16, "unit": "µg/mL"}, {"measurement": "MIC Coagulase Negative Staphylococcus (GC 4547)", "setting": "Staphylococcus sp.; strain GC 4547", "value": 32, "unit": "µg/mL"}, {"measurement": "MIC Coagulase Negative Staphylococcus (GC 4548)", "setting": "Staphylococcus sp.; strain GC 4548", "value": 32, "unit": "µg/mL"}, {"measurement": "MIC Coagulase Negative Staphylococcus (GC 4549)", "setting": "Staphylococcus sp.; strain GC 4549", "value": 64, "unit": "µg/mL"}, {"measurement": "MIC Coagulase Negative Staphylococcus (GC 4551)", "setting": "Staphylococcus sp.; strain GC 4551", "value": 64, "unit": "µg/mL"}, {"measurement": "MIC Coagulase Negative Staphylococcus (GC 6257)", "setting": "Staphylococcus sp.; strain GC 6257", "value": 16, "unit": "µg/mL"}, {"measurement": "MIC Escherichia coli (ATCC 25922)", "setting": "Escherichia coli; strain ATCC 25922", "value": 64, "unit": "µg/mL"}, {"measurement": "MIC Escherichia coli (GC 4559)", "setting": "Escherichia coli; strain GC 4559", "value": 64, "unit": "µg/mL"}, {"measurement": "MIC Escherichia coli (GC 4560)", "setting": "Escherichia coli; strain GC 4560", "value": 32, "unit": "µg/mL"}]}
